From patent US4455292A, “Radiological contrast composition and methods” (Board of Regents, the University of Texas System, priority 1982, dated 1984)
pKi: −log10 of the molar value.

What was measured:
human brain hexokinase [1] = target: T1, human brain hexokinase (Homo sapiens, UniProt P19367); details: read-out: Km for glucose utilization by brain hexokinase, Michaelis constant; cited from earlier work
T1 sequence (P19367 1-917): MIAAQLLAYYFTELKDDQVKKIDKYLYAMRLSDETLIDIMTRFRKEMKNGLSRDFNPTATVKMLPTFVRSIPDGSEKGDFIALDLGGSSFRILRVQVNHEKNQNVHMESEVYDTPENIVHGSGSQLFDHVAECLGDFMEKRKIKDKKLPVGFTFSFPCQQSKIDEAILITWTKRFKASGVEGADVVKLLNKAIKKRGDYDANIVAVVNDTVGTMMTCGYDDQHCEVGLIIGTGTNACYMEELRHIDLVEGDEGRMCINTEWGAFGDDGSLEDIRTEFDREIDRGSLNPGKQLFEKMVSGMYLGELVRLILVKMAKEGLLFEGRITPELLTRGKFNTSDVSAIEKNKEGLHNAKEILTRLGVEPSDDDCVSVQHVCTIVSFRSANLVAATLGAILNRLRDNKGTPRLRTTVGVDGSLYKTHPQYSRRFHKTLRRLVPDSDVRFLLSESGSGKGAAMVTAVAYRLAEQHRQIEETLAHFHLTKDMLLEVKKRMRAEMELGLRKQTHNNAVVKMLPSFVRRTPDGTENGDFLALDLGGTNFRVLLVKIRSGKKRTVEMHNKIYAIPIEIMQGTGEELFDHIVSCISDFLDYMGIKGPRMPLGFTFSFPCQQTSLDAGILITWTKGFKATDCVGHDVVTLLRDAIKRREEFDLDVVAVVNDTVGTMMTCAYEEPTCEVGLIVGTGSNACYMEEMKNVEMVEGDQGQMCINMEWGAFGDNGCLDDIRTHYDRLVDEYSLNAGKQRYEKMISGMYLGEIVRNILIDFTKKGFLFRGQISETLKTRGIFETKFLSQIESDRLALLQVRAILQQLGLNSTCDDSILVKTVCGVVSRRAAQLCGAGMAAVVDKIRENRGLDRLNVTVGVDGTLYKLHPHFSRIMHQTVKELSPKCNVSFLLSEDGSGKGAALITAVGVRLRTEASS

patients = details: cerebrospinal myelography patients; cited from earlier work
human brain hexokinase [2] = target: T1, human brain hexokinase; experiment: Calculated glucose utilization by brain hexokinase (v/Vmax, Michaelis-Menten equation with competitive inhibitor); parameters: from tissue; host or cells: human brain
Text: (§1) The appropriate amount of glucose to be combined with or to be coadministered with a selected iodo-benzamido-glucopyranose contrast agent can be determined by knowing the hexokinase inhibition constant (Ki) for a selected contrast agent. The ratio of the activity of an enzyme to its maximal activity (Vmax) in the presence of competitive inhibitors is given by the following formula: v/Vmax=[S]/([S]+Km(1+([I]/Ki)), where [S] is glucose concentration, [I] is inhibitor concentration, Km is the Michaelis constant for glucose utilization of hexokinase, and Ki is the inhibition constant for the contrast agent. With no inhibitor present, glucose utilization by human brain hexokinase is represented by a v/Vmax of 0.99 (the Km for glucose utilization by brain hexokinase is 0.05 mM, and typical spinal fluid contains 4 mM glucose).
In a routine myelographic procedure, 780 mM (300 mg I/ml) metrizamide is administered. Substituting this variable into the above Michaelis-Menten equation, one finds a v/Vmax of only 0.25. […]
However because metrizamide is a relatively weak competitive inhibitor of glucose, a small increase in glucose concentration can restore hexokinase-glucose utilization to an effective level. […] By solving for [S] it is calculated that an initial concentration of about 100 mM glucose is needed to counteract the effects of an intrathecal injection of 780 mM metrizamide. […]

human brain hexokinase [3] = target: T1, human brain hexokinase; experiment: Inhibition constant for human brain hexokinase; assay type: biochemical; parameters: from tissue; host or cells: human brain; details: with respect to human brain hexokinase; competitive with glucose
Text: as §1
In a routine myelographic procedure, 780 mM (300 mg I/ml) metrizamide is administered. Substituting this variable into the above Michaelis-Menten equation, one finds a v/Vmax of only 0.25. This value represents a significant reduction in glucose utilization. Even if the concentration of metrizamide were diluted tenfold by the time it reached the cerebral surfaces, a v/Vmax of only 0.77 is predicted. Reductions in glucose utilization ranging from 0.6 to 0.7 have been associated with varieties of stupor and coma in humans.

[4] = reconstituted according to certain directions, at body temperature; cited from earlier work
Rat Brain Hexokinase = experiment: Competitive inhibition of rat brain hexokinase; assay type: biochemical; details: J. Neurochemistry 37: 1000 (1981)
Text: Rather than relying on indirect manipulative steps to avoid contrast agent diffusion to brain, there is a need for an inexpensive, reliable, direct mechanism to avoid central nervous system complications induced by the iodo-benzamido-glucopyranose x-ray contrast agents. Following intense pharmacological research into the biochemical activity of the contrast agents, typified by metrizamide, Applicant has discovered that such compounds interfere with glycolysis metabolism in the brain. […] This interference with the utilization of glucose, which normally serves as the obligatory energy source in the brain, may explain some of the depressive effects of intrathecally administered metrizamide and related compounds.

v/Vmax (glucose utilization) (human brain hexokinase [2]; 780 mM (300 mg I/ml) metrizamide, routine myelographic procedure, typical spinal fluid 4 mM glucose)	v/Vmax (glucose utilization) (human brain hexokinase [2]; metrizamide concentration diluted tenfold by the time it reaches the cerebral surfaces)	pKi (human brain hexokinase [3])	Compound	Km (human brain hexokinase [1])	fraction of patients treated with temporary confusional state and EEG deterioration (patients)	specific gravity [4]	mode of hexokinase inhibition (Rat Brain Hexokinase)
			OC[C@H]1OC(O)[C@H](O)[C@@H](O)[C@@H]1O (stereo partly shown) [glucose]	50 µM			
0.25	0.77	2.60	CC(=O)Nc1c(I)c(C(=O)N[C@H]2C(O)O[C@H](CO)[C@@H](O)[C@@H]2O)c(I)c(N(C)C(C)=O)c1I (stereo partly drawn) [metrizamide, 2-[3-Acetamido-2,4,6-triiodo-5-(N-methylacetamido)benzamido]-2-deoxy-D-glucopyranose]		about one-third	1.184	competes with glucose to inhibit hexokinase activity
